Assay results reported in patent publication US20200157092A1, “[1,2,4]-TRIAZOLO [1,5-A]-PYRIMIDINYL DERIVATIVES SUBSTITUTED WITH PIPERIDINE, […] […] OGA INHIBITORS” (priority 2017, published 2020).
Like-named read-outs stand apart in the source and are kept apart here.

Columns and labels:
[1] = target: T1, recombinant human Meningioma Expressed Antigen 5 (MGEA5), also referred to as O-GlcNAcase (OGA) (Homo sapiens, UniProt O60502); assay: OGA biochemical assay: inhibition of FM-GlcNAc hydrolysis, fluorescence; protocol A (10 nM OGA, 1 h) or protocol B (2 nM OGA, 6 h); details: for IC50: read-out: Enzymatic hOGA, pIC50 (converted)
T1 construct: Full length OGA enzyme was purchased at OriGene (cat # TP322411); purchased OriGene TP322411
T1 sequence (O60502 1-916): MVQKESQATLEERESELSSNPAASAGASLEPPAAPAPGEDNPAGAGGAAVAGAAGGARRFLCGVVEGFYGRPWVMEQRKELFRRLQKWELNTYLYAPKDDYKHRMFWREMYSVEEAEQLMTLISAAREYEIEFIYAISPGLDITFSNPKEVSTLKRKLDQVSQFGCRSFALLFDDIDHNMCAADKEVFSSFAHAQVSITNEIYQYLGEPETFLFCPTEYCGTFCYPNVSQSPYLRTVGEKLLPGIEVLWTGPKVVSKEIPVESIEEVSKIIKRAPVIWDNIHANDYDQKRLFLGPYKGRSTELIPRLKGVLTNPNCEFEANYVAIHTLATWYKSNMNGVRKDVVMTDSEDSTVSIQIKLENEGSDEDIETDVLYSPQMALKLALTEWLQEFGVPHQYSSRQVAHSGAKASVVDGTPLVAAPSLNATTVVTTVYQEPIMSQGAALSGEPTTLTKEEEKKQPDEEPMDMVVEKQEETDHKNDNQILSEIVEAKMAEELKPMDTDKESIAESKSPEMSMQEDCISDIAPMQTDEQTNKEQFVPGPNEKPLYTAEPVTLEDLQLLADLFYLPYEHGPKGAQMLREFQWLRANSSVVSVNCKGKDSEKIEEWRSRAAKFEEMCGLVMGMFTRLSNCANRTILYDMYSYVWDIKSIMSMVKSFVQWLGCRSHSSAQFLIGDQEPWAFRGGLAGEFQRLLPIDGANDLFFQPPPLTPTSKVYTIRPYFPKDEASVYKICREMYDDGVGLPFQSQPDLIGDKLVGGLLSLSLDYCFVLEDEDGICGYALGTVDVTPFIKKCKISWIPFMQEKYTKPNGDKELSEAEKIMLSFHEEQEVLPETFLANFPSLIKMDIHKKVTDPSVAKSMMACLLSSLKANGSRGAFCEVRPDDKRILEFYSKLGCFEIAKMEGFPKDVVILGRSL
Experimental: The hydrolysis FM-GlcNAc (Marker Gene technologies, cat # M1485) results in the formation of ß-D-N-glucosamineacetate and fluorescein. The fluorescence of the latter can be measured at excitation wavelength 485 nm and emission wavelength 538 nm. An increase in enzyme activity results in an increase in fluorescence signal. Full length OGA enzyme was purchased at OriGene (cat # TP322411). The enzyme was stored in 25 mM Tris.HCl, pH 7.3, 100 mM glycine, 10% glycerol at −20° C. […] The assay was performed in 200 mM Citrate/phosphate buffer supplemented with 0.005% Tween-20. 35.6 g Na2HPO4 2 H2O (Sigma, # C0759) were dissolved in 1 L water to obtain a 200 mM solution. […] The buffer to stop the reaction consists of a 500 mM Carbonate buffer, pH 11.0. […] OGA was used at a 10 nM (protocol A) or 2 nM (protocol B) concentration and FM-GlcNAc at a 100 uM final concentration. Dilutions were prepared in assay buffer.
Plates were pre-incubated for 60 min at room temperature and then 2 μl FM-GlcNAc substrate mix added. […] Plates were briefly centrifuged for 1 min at 1000 rpm and incubate at room temperature for 1 h (10 nM OGA, protocol A) or 6 h (2 nM OGA, protocol B). To stop the reaction 5 μl STOP buffer were added and plates centrifuge again 1 min at 1000 rpm. Fluorescence was quantified in the Thermo Scientific Fluoroskan Ascent or the PerkinElmer EnVision with excitation wavelength 485 nm and emission wavelength 538 nm.
For analysis a best-fit curve is fitted by a minimum sum of squares method. From this an IC50 value and Hill coefficient was obtained. High control (no inhibitor) and low control (saturating concentrations of standard inhibitor) were used to define the minimum and maximum values.

OGA = target: T2, OGA (Homo sapiens, UniProt O60502); assay: OGA cellular assay: immunocytochemical detection of O-GlcNAcylated proteins in HEK293 cells inducible for P301L mutant human Tau; type: cell-based; details: for Emax: HEK293, read-out: Cellular Emax (%); for Cellular hOGA; pEC50 / Cellular Emax (%): HEK293 cells inducible for P301L mutant human Tau, 6 hours incubation; for Cellular Emax (%): maximum = Thiamet G 200 uM
T2 construct: HEK293 cells inducible for P301L mutant human Tau (isoform 2N4R) were established at Janssen; endogenous in cells; host or cells: HEK293 cells inducible for P301L mutant human Tau (2N4R)
T2 sequence (O60502 1-916): T1 sequence (O60502 1-916)
Source text: HEK293 cells inducible for P301L mutant human Tau (isoform 2N4R) were established at Janssen. Thiamet-G was used for both plate validation (high control) and as reference compound (reference EC50 assay validation). […] Inhibition of OGA will result in an increase of O-GlcNAcylated protein levels resulting in an increased signal in the experiment. […] ICC pictures are imaged with a Perkin Elmer Opera Phenix plate microscope and quantified with the provided software Perkin Elmer Harmony 4.1.
Cells were propagated in DMEM high Glucose (Sigma, # D5796) following standard procedures. […] At the day of compound test medium from assay plates was removed and replenished with 90 μl of fresh Assay Medium. 10 μl of compounds at a 10 fold final concentration were added to the wells. Plates were centrifuged shortly before incubation in the cell incubator for 6 hours. DMSO concentration was set to 0.2%. Medium is discarded by applying vacuum. For staining of cells medium was removed and cells washed once with 100 μl D-PBS (Sigma, # D8537). From next step onwards unless other stated assay volume was always 50 μl and incubation was performed without agitation and at room temperature. […] Before analysis samples were washed 2 times manually for 5 minutes in ICC base buffer.
Imaging is performed using Perkin Elmer Phenix Opera using a water 20× objective and recording 9 fields per well. Intensity readout at 488 nm is used as a measure of O-GlcNAcylation level of total proteins in wells. To assess potential toxicity of compounds nuclei were counted using the Hoechst staining. IC50-values are calculated using parametric non-linear regression model fitting. As a maximum inhibition Thiamet G at a 200 uM concentration is present on each plate. In addition, a concentration response of Thiamet G is calculated on each plate.

[2] = Enzymatic protocol A (10 nM OGA, 1 h)
[3] = Enzymatic protocol B (2 nM OGA, 6 h)

SMILES	Emax [1, 2] [%]	IC50 [1, 2] [µM]	melting point [°C]	Emax [1, 3] [%]	IC50 [1, 3] [µM]	EC50 (OGA) [µM]	Emax (OGA) [%]	further results
CC(=O)Nc1ncc(S(=O)(=O)N2CCCC(c3cc(C(F)F)n4ccnc4n3)C2)s1 (racemic) [Product 23]	102	0.295	280.13					
CC(=O)Nc1ncc(S(=O)(=O)N2CC[C@H](C)[C@@H](c3cc(C(F)F)nc4ncnn34)C2)s1 [Product 7]	82.2	2.75	264.57					
CC(=O)Nc1ncc(CN2CCC(c3cc(C(F)(F)F)nc4ncnn34)C2)s1 (centres unmarked) [Product 20]			214.29	93.7	0.603			
CC(=O)Nc1ncc(S(=O)(=O)N2CCC[C@@H](c3cc(C(F)F)n4ncnc4n3)C2)s1 [Product 22]	99.1	0.617	263.43					
CC(=O)Nc1ncc(CN2CCOC(c3cc(C(F)F)nc4ncnn34)C2)s1 (centres unmarked) [Product 34]	97.4	1.58	260.21					
CC(=O)Nc1ncc(CN2CCOC(c3cc(C)nc4ncnn34)C2)s1 (centres unmarked) [Product 35]	98.3	1.58	264.26	86.7	1.48			
CC(=O)Nc1ncc(CN2CCOC(c3ccnc4ncnn34)C2)s1 (centres unmarked) [Product 36]			251.21	93.6	0.741			
CC(=O)Nc1ncc(CN2CCOC(c3cc(C(F)(F)F)nc4ncnn34)C2)s1 (centres unmarked) [Product 37]			242.64	79.6	2.69			
CC(=O)Nc1ncc(S(=O)(=O)N2CCOC(c3cc(C(F)F)n4ncnc4n3)C2)s1 (centres unmarked) [Product 38]	101	0.468	229.94					
CC(=O)Nc1ncc(CN2CCOC(c3cc(C(F)F)n4ncnc4n3)C2)s1 (centres unmarked) [Product 39]	88.4	3.47	209.69					
CC(=O)Nc1ncc(S(=O)(=O)N2CCNC(c3cc(C)nc4ncnn34)C2)s1 (centres unmarked) [Product 40]	100	0.0166	226.91					
CC(=O)Nc1ncc(CN2CCNC(c3cc(C)nc4ncnn34)C2)s1 (centres unmarked) [Product 42]			228.95	93.6	0.437			
CC(=O)Nc1ncc(CN2CCC(Cc3cccc4nccn34)C2)s1 (centres unmarked) [Product 50]				99.6	0.00933	0.0339	103	
Cc1cc(C2CCCN(C(C)c3ccc4c(c3)OCO4)C2)n2ccnc2n1 (centres unmarked) [Product 52]				101	0.0186	2.63	131	
CC(c1ccc2c(c1)OCO2)N1CCOC(c2ccnc3ncnn23)C1 (centres unmarked) [Product 55]				51.8	9.55	> 10	1.01	
c1cc(CC2CCN(Cc3ccc4nccnc4c3)C2)n2ccnc2c1 (centres unmarked) [Product 58]				97.3	0.245	> 10	4.1	
CC(=O)Nc1ncc(CN2CCC3(CC3)C(c3cc(C(F)F)nc4ncnn34)C2)s1 (centres unmarked) [Product 64]	101	0.0692				4.79	84.5	
CC(=O)Nc1ncc(CN2CCCC(Cc3cccc4nccn34)C2)s1 (centres unmarked) [Product 66]				101	0.0295	0.0182	97.3	
CC(=O)Nc1ncc(CN2CCC(Cc3cnc4ccn(C)c4c3)C2)s1 (centres unmarked) [Product 69]				99.6	0.00302	0.0234	108	
CC(=O)Nc1ncc(CN2CCCC(c3ccc4ccn(C)c4n3)C2)s1 (centres unmarked) [Product 73]				101	0.0813	0.195	87.2	
CC(=O)Nc1ncc(CN2CCCC(c3cc(C)nc4ccn(C)c34)C2)s1 (centres unmarked) [Product 86]								Enzymatic Emax (%) [1, 3]: 102.93%; Enzymatic hOGA; pIC50 [1, 3]: 8.38; Cellular hOGA; pEC50 (OGA): 7.18; Cellular Emax (%) (OGA): 100.91%
CC(=O)Nc1ncc(CN2CCCC(c3nc(C)cc4ccn(C)c34)C2)s1 (centres unmarked) [Product 88]				101	0.0832	0.407	57.4	
CC(=O)Nc1ncc(CN2CCCC(c3nc(C)cc4cc[nH]c34)C2)s1 (centres unmarked) [Product 91]				103	0.0955	0.0447	84.3	
CC(=O)Nc1ncc(CN2CCCC(c3nc(C)cc4cc[nH]c34)C2)s1 (centres unmarked) [Product 93]								Enzymatic Emax (%) [1, 3]: 101.08%; Enzymatic hOGA; pIC50 [1, 3]: 7.35; Cellular hOGA; pEC50 (OGA): 7.61; Cellular Emax (%) (OGA): 87.83%
CC(=O)Nc1ncc(CN2CCCC(c3cc(C)nc4cc[nH]c34)C2)s1 (centres unmarked) [Product 96]								Enzymatic Emax (%) [1, 3]: 99.16%; Enzymatic hOGA; pIC50 [1, 3]: 6.15; Cellular hOGA; pEC50 (OGA): 6.40; Cellular Emax (%) (OGA): 70.38%
CC(=O)Nc1ncc(CN2CCCC(Cc3cnc4cc[nH]c4c3)C2)s1 (centres unmarked) [Product 97]				102	0.00174	0.00776	109	
CC(=O)Nc1ncc(CN2CCCC(c3ccc4c(ccn4C)n3)C2)s1 (centres unmarked) [Product 100]				98.5	0.309	0.195	85.7	
CC(=O)Nc1ncc(CN2CCCC(c3cc4ccn(C)c4nc3C)C2)s1 (centres unmarked) [Product 101]				102	0.00661	0.00933	114	
CC(=O)Nc1ncc(CN2CCCC(c3cnc4cc[nH]c4c3)C2)s1 (centres unmarked) [Product 106]				101	0.275	0.282	71	
CC(=O)Nc1ncc(CN2CC[C@H](Cc3cccc4nccn34)C2)s1 [Product 107]				101	0.00813	0.055	82	
